Test results reported in patent US7645882B2, “Inhibitor of protein modification products formation” (priority 2003, dated 2010).

What was measured:
[1] = Solubility test at different pH; assay type: physicochemical; settings: for condition of the solution: 10 mg per 1 ml purified water
Protocol: TM-2002 was added in purified water to be 10 mg per 1 ml and added hydrochloride to adjust to pH 2.0 and solved. Then, this solution was adjusted to pH 7.0, 8.0 and 2,0 (unadjust) by 1N sodium hydrate to prepare 3 solutions. These solutions were put on warming, dark cold place and after 24 hours, conditions of the solutions were observed. […] As the result, stable TM-2002 injectable formulation in its solubility may be prepared by keeping acidic condition using inorganic acid such as hydrochloride, sulfuric acid, or various organic acid, or by using TM-2002 hydrochloride or sulfate as material which is made from said acids.

[2] = tested on: rat carotid balloon injury model; test: Vascular endothelial thickening inhibiting effect in rat carotid balloon injury model; assay type: in vivo; settings: oral 50 mg/kg twice daily (hydrochloride), 15 days, aminoguanidine hydrochloride 45 mg/kg twice daily as positive control
Protocol: vascular endothelial thickening inhibiting effect in rat carotid balloon injury model, which is post-vasodilatory operation restenosis model.
TM-2002 was suspended in sodium carboxymethylcellulose aqueous solution (CMC) (0.5%) using mortar and prepared to the concentration of 12.5 mg/mL using measuring cylinder.
Aminoguanidine hydrochloride (Sigma) was used as positive control, suspended in CMC aqueous solution (0.5%) using mortar in the same manner, and prepare to the concentration of 11.25 mg/mL using measuring cylinder. Each preparation was formed when use it to administer orally coercively using disposable injection and oral sonde with suspending. […]
While testing, the alive and the condition of wound were observed everyday. The body weight was measured once a day from the day before injury to 14 day after balloon injury. The dose of each individuals were calculated by their body weight.
The blood samples were obtained from abdomen vena cava under anesthesia by ether on 15 day after balloon injury. […] The area of intravascular lumen, the area surrounded by internal elastic lamina and the area surrounded by external elastic lamina was calculated using image analyzer (VM-30, Olympus photology).
For each sections (3 region), the area of neointimal, media and neointimal/media rate of blood vessel was calculated from the measured area. […]

[3] = tested on: ORP150; test: ER stress inducing molecule expression in RIN-5F cells, western blot, ORP150; assay type: cell-based, rat; settings: TM-2002 200 μM, 50 μM and tunicamycin co-added
Protocol: Rat pancreatic β cell line (RIN-5F) was seeded in 6 well culture plate to 1.0×10^5 cells/well, and after 24 hours, TM-2002 in DMSO (200 mM, 50 mM) were added to be final concentration 200 μM, 50 μM. After another 1 hour, 0.2 μl of tunicamycin (Sigma) in methanol(1 mg/ml) was added. After culturing 8 hours, the cells were washed 2 ml of PBS(+) twice, and the cells were dissolved in 100 μl of lysate (50 mM Tris-HCl (pH 7.5), 150 mM NaCl, 100 mM NaF, 100 mM sodium phosphate (pH 7.4), 2 mM Na3VO4, 0.1% protease inhibitor cocktail (Sigma), 1% Triton X-100). To remove the insoluble fraction of this lysate, centrifuged at 12,000×g for 10 minutes and obtained the supernatant to give cell extract. The extract was quantified its protein concentration using DC protein assay kit (Bio Rad), and each samples (1 μg) was electrophoresed by SDS-PAGE and transferred to PVDF membrane. The membrane was blocked with 5% skimmed milk/0.1% Tween20-TBS for 1 hour at room temperature, and reacted with anti-ORP150 antibody in 5% skimmed milk/0.1% Tween20-TBS (2000 folds: specific antibody), anti-GRP78 antibody (Santa Cruz) in 5% skimmed milk/0.1% Tween20-TBS (100 folds) and anti-actin antibody (Sigma) in 5% skimmed milk/0.1% Tween20-TBS (200 folds) for 2 hours. […] The detected signal was analyzed by Lane analyzer (ATTO) and calculated the signal strength. […]

Cc1ncc2c(c1O)C(c1c(C)nn(-c3ccccc3)c1O)OC2 (stereo not drawn) [compound 68, 1-(5-hydroxy-3-methyl-1-phenyl-1H-pyrazol-4-yl)-6-methyl-1,3-dihydro-furo[3,4-c]pyridin-7-ol]
condition of the solution ([1]; pH 2.0, after 24 hours): kept clear solution
condition of the solution ([1]; pH 7.0, after 24 hours): observed precipitate
condition of the solution ([1]; pH 8.0, after 24 hours): observed precipitate
change of color of the solution ([1]; pH 7.0 and pH 8.0 solutions, after 24 hours): the change of color was shown
intimal thickening inhibiting effect [2]: intimal thickening inhibiting effect equal to aminoguanidine group
hyperexpression of ORP150 [3]: suppressed
